Patent US20260174749A1, “COMBINATION THERAPY WITH SUBSTITUTED 3-((3-AMINOPHENYL)AMINO)PIPERIDINE-2,6- DIONE COMPOUNDS” (Bristol-Myers Squibb Company, priority 2022, published 2026)

Key:
Type in all cases: cell-based
Conditions in all cases: second agent in combination with Compound I, 7 days; for Synergy region (synergy score): Bliss/HSA excess
22RV1 cells = test: CTG proliferation assay, in-vitro combination screen, 22RV1; parameters: key to Synergy region (synergy score) / Additivity score / Antagonism score: area between experimental and reference (Bliss/HSA) response surfaces
Method: (§1) Three prostate cancer cell lines LNCAP, VCAP, and 22RV1 were used in this screen. Briefly, LNCaP cells were cultured in RPMI medium supplemented with 10% FBS, 1% penicillin/streptomycin, 10 mM HEPES, 1 mM sodium pyruvate, and 1.5 g/L sodium bicarbonate. […] PC3 cells were cultured in F12K medium supplemented with 10% FBS and 1% penicillin/streptomycin. 22RV1 cells were cultured in RPMI1640 medium supplemented with 10% FBS and 1% penicillin/streptomycin. […] VCaP cells were cultured in DMEM medium supplemented with 10% FBS, 1% penicillin/streptomycin 1 mM sodium pyruvate, 1.5 g/L sodium bicarbonate on high bind treated tissue culture flasks (Corning CellBIND) to increase cell surface attachment. […] The combination plates seeded with cells were then incubated for 7 days at 37° C. and 5% CO2. Cell viability assays were then performed on the plates using Promega CellTiter-Glo (CTG) Luminescent Cell Viability Assay kit and following the manufacturer's protocol. 20 μL of CTG reagent was added to each well of the 384 well plate, and plates were then incubated for 45 minutes before measuring the […] using PerkinElmer EnVision Plate Reader.
(§2) Synergy is calculated by Bliss and HSA excess scores. Bliss and HSA excess scores are computed by subtracting the area under the experimental response surface to the areas under the corresponding reference model surface. A negative HSA excess score indicates antagonism, while a positive HSA excess indicates additivity and synergy is detected when also the Bliss excess score is positive. Replicates are integrated by fitting individual dose response curves. Statistical analysis is performed by first estimating experimental noise and goodness-of-fit values for each individual combination. These values are used to compute Z-scores for the observed effects. Z-scores are integrated across the combination matrix where the deviation from the model is consistent over adjacent doses and a p-value is computed.

LNCaP cells = test: CTG proliferation assay, in-vitro combination screen, LNCaP; parameters: key to Synergy excess: experimental response-surface area minus reference-model area (Bliss/HSA); Maximum synergy: scale not given here
Method: Three prostate cancer cell lines LNCAP, VCAP, and 22RV1 were used in this screen. Briefly, LNCaP cells were cultured in RPMI medium supplemented with 10% FBS, 1% penicillin/streptomycin, 10 mM HEPES, 1 mM sodium pyruvate, and 1.5 g/L sodium bicarbonate. LNCaP cells were seeded at a density of 2000 cells/well on 384 black assay plates printed with our different compound combinations of interest printed on the plates. PC3 cells were cultured in F12K medium supplemented with 10% FBS and 1% penicillin/streptomycin. 22RV1 cells were cultured in RPMI1640 medium supplemented with 10% FBS and 1% penicillin/streptomycin. 22RV1 cells were seeded at a density of 2000 cells/well on 384 black assay plates printed with our different compound combinations of interest printed on the plates. VCaP cells were cultured in DMEM medium supplemented with 10% FBS, 1% penicillin/streptomycin 1 mM sodium pyruvate, 1.5 g/L sodium bicarbonate on high bind treated tissue culture flasks (Corning CellBIND) to increase cell surface attachment. VCaP cells were seeded at a density of 3000 cells/well on high-bind 384 black assay plates printed with our different compound combinations of interest printed on the plates. The combination plates seeded with cells were then incubated for 7 days at 37° C. and 5% CO2. Cell viability assays were then performed on the plates using Promega CellTiter-Glo (CTG) Luminescent Cell Viability Assay kit and following the manufacturer's protocol. 20 μL of CTG reagent was added to each well of the 384 well plate, and plates were then incubated for 45 minutes before measuring the […] using PerkinElmer EnVision Plate Reader.
as §2

VCaP cells = test: CTG proliferation assay, in-vitro combination screen, VCaP; parameters: key to Synergy excess / Additivity score: area between experimental and reference (Bliss/HSA) response surfaces
Method: as §1, §2

Compound	Additivity score (22RV1 cells)	Antagonism score (22RV1 cells)	Maximum synergy (22RV1 cells)	Synergy region (synergy score) (22RV1 cells)	Synergy excess (22RV1 cells)	Additivity score (LNCaP cells)	Antagonism score (LNCaP cells)	Maximum synergy (LNCaP cells)	Synergy excess (LNCaP cells)	Synergy region (synergy score) (LNCaP cells)	Additivity score (VCaP cells)	Antagonism score (VCaP cells)	Maximum synergy (VCaP cells)	Synergy excess (VCaP cells)	Synergy region (synergy score) (VCaP cells)
CNC(=O)c1cc(Oc2ccc(NC(=O)Nc3ccc(Cl)c(C(F)(F)F)c3)cc2)ccn1 [Sorafenib, sorafenib]	2.6	0	20	0.65	–	–	–	–	–	–	–	–	–	–	–
CC(C)NC[C@@H](C(=O)N1CCN(c2ncnc3c2[C@H](C)C[C@H]3O)CC1)c1ccc(Cl)cc1 [GDC-0068, ipatasertib]	7.5	0	23	2.1	2.4	13	0	23	7.6	5.6	7.5	0	14	3.8	1.5
N#CC[C@H](C1CCCC1)n1cc(-c2ncnc3[nH]ccc23)cn1 [Ruxolitinib, ruxolitinib]	–	–	–	–	–	–	–	–	–	–	5.2	0	–	–	–
CCN(c1cc(-c2ccc(CN3CCOCC3)cc2)cc(C(=O)NCc2c(C)cc(C)[nH]c2=O)c1C)C1CCOCC1 [Tazemetostat, tazemetostat]	–	–	–	–	–	6.1	0	20	5.3	4.1	–	–	–	–	–
C[C@@H](Nc1cc(F)cc(F)c1)c1cc(C(=O)N(C)C)cc2c(=O)cc(N3CCOCC3)oc12 [AZD8186]	7.6	0	24	1.6	2.4	10	0	12	4.4	1.5	2.1	0	11	2.9	0.39
NC1(C(=O)N[C@@H](CCO)c2ccc(Cl)cc2)CCN(c2nc[nH]c3nccc2-3)CC1 [AZD5363, capivasertib]	–	–	–	–	–	16	0	26	9.4	8.1	7.1	0	13	6.2	2
